Laboratory results reported in patent US20230233533A1, “COMPOSITIONS, METHODS OF TREATING AND PREVENTING FUNGAL INFECTIONS, AND METHODS OF INHIBITING PRP8 INTEIN EXPRESSION” (Health Research, Inc., priority 2020, published 2023).
In brackets after ≈: the same amount, converted by molar mass.

Columns and labels:
C. neoformans H99 strain = test: Fungal susceptibility test, broth microdilution MIC; type: cell-based, Cryptococcus neoformans; conditions: Cryptococcus neoformans, H99STRAIN; C. neoformans H99, microbroth dilution; read-out: MIC H99
Procedure: Fungal susceptibility test—The fungal susceptibility test was carried out with a compound concentration series as described. […] The broth microdilution method was used to determine the compound MIC values against C. neoformans.
Fungal susceptibility test—The fungal susceptibility test was carried out with a compound concentration series as described. […] Microbes. Infect. […] The broth microdilution method was used to determine the compound MIC values against C. neoformans.

Prp8 intein [1] = molecular target: T1, Prp8 intein (Cryptococcus gattii, UniProt E6R027); test: Split Cys-free (Cf) GFP-Prp8 intein splicing assay; type: biochemical; conditions: read-out: IC50 CfGFP-Prp8 (converted)
Procedure: (§1) The constructs for Cys-free (Cf) GFP-Prp8 and Cys-free nanoluciferase NnLuc-Prp8 were codon-optimized, synthesized, and cloned into the pET28a vector using the NcoI and XhoI sites by Gene Universal (Gene Universal, Newark Del.). […] The expression, refolding and purification of the CfGFP-Prp8 and NnLuc-Prp8 fusion proteins were carried out as described previously. […] Microbes. Infect.
Split GFP-Prp8 and CJGFP-Prp8 intein splicing assays—Using black and clear bottom 96-well plates, the DPNB-treated, -refolded and -concentrated GFP-Prp8 or CfGFP-Prp8 fusion protein (0.5 μM) was incubated with compounds or Dimethylsulfoxide (DMSO) solvent control for 30 min at 25° C. in a 100 μl intein splicing buffer (20 mM Bis-tris propane, 0.5 M NaCl, 0.5 M arginine, 1 mM EDTA, and 0.05% CHAPS). Then 100 μl 2×TCEP was added to a final concentration of 20 μM. The reactions were incubated at 25° C. overnight. […] Two readings were taken, one prior to addition of TCEP (I0) and one after incubation overnight with TCEP (If). Fluorescence/luminescence differences (ΔFluorescence or ΔLuminescence) were defined as If−I0 for each well. […] DMSO control served as 100% splicing activity.

Prp8 intein [2] = molecular target: T1, Prp8 intein; test: Split nanoluciferase NnLuc-Prp8 intein splicing assay; type: biochemical
Procedure: as §1
Split luciferase RLuc-Prp8 and NnLuc-Prp8 intein splicing assays—The split RLuc-Prp8 intein splicing assay was carried out and monitored using a Veritas luminometer, as described previously. […] Microbes. Infect. […] For NnLuc-Prp8 intein splicing assay, the NnLuc-prp8 is diluted in assay buffer (50 mM Tris, 0.1% BSA, 1 mM EDTA, pH 7.4) and 50 ul is added to each well in 96 well black plates. Test molecules or the solvent was added and incubated for 30 to 60 min. A splicing inducer TCEP (50 ul, 100 μM) is added and incubated for 24 h. Luciferase substrate (Furimazine, 25 ul 1:10,000 diluted) is added and luminescence is read using a luminescence reader. IC50 is calculated using Graphpad prism.

in vitro = type: cell-based, human; conditions: human, CC50 A549
Procedure: Cytotoxicity—Cytotoxicity assays were carried out using human lung carcinoma cell line A549, as described (Chen et al., “Selective Inhibition of the West Nile Virus Methyltransferase by Nucleoside Analogs,” Antiviral Research 97(3):232-239 (2013), which is hereby incorporated by reference in its entirety). Briefly, the A549 cells (5×10^3) were incubated with/without compounds in a 96-well plate at 37° C. for 48 h. Cell viability was determined using the MTT assay (ATCC) as was described previously (Chen et al., “Selective Inhibition of the West Nile Virus Methyltransferase by Nucleoside Analogs,” Antiviral Research 97(3):232-239 (2013) and Brecher et al., “Identification and Characterization of Novel Broad-Spectrum Inhibitors of the Flavivirus Methyltransferase,” ACS Infectious Diseases 1(8):340-349 (2015), both of which are hereby incorporated by reference in their entirety). N=3.
Cytotoxicity—Cytotoxicity assays were carried out using human lung carcinoma cell line A549, as described. Chen et al., “Selective Inhibition of the West Nile Virus Methyltransferase by Nucleoside Analogs,” Antiviral Res. 97:232-9 (2013), which is hereby incorporated by reference in its entirety. Briefly, the A549 cells (5×10^3) were incubated with/without compounds in a 96-well plate at 37° C. for 48 h. Cell viability was determined using the MTT assay (ATCC) as was described previously (Chen et al., “Selective Inhibition of the West Nile Virus Methyltransferase by Nucleoside Analogs,” Antiviral Research 97(3):232-239 (2013) and Brecher et al., “Identification and Characterization of Novel Broad-Spectrum Inhibitors of the Flavivirus Methyltransferase,” ACS Infectious Diseases 1(8):340-349 (2015), both of which are hereby incorporated by reference in their entirety). N=3.

T1 sequence (E6R027 entry or part of it): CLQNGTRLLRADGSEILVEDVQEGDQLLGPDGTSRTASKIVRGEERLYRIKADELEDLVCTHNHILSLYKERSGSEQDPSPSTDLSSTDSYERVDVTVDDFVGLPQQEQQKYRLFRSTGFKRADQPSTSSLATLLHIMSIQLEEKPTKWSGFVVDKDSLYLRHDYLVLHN

O=C(Nc1cc(F)cc(F)c1)c1nnsc1S(=O)(=O)c1ccc(Cl)cc1 [JMX1038, 5-((4-Chlorophenyl)sulfonyl)-N-(3,5-difluorophenyl)-1,2,3-thiadiazole-4-carboxamide]
MIC (C. neoformans H99 strain): > 50 µM | IC50 (Prp8 intein [1]): 37.1 µM | IC50 (Prp8 intein [2]): 37.4 µM | CC50 at 48 h (in vitro): 54.2 µM

O=C(Nc1ccc(C(F)(F)F)cc1Cl)c1nnsc1S(=O)(=O)c1ccc(Cl)cc1 [JMX1042, N-(2-Chloro-4-(trifluoromethyl)phenyl)-5-((4-chlorophenyl)sulfonyl)-1,2,3-thiadiazole-4-carboxamide]
MIC (C. neoformans H99 strain): > 50 µM | IC50 (Prp8 intein [1]): 41.5 µM | IC50 (Prp8 intein [2]): 10.9 µM | CC50 at 48 h (in vitro): 98.7 µM

O=C(Nc1ccc(F)cc1)c1nnsc1S(=O)(=O)c1ccc(F)c(F)c1 [JMX1060, 5-((3,4-Difluorophenyl)sulfonyl)-N-(4-fluorophenyl)-1,2,3-thiadiazole-4-carboxamide]
MIC (C. neoformans H99 strain): 50 µM (≈ 20 µg/mL) | IC50 (Prp8 intein [1]): 32.8 µM | IC50 (Prp8 intein [2]): 23.5 µM | CC50 at 48 h (in vitro): 61.1 µM

O=C(Nc1ccc(F)cc1)c1nnsc1S(=O)(=O)c1ccc(Cl)c(Cl)c1 [JMX1064, 5-((3,4-Dichlorophenyl)sulfonyl)-N-(4-fluorophenyl)-1,2,3-thiadiazole-4-carboxamide]
MIC (C. neoformans H99 strain): 1.56 µM (≈ 0.674 µg/mL) | IC50 (Prp8 intein [1]): 32.6 µM | IC50 (Prp8 intein [2]): 26 µM | CC50 at 48 h (in vitro): 78.4 µM

O=C(Nc1ccc(F)cc1)c1nnsc1S(=O)(=O)c1ccc(Cl)cc1Cl [JMX1059, 5-((2,4-Dichlorophenyl)sulfonyl)-N-(4-fluorophenyl)-1,2,3-thiadiazole-4-carboxamide]
MIC (C. neoformans H99 strain): 12.5 µM (≈ 5.4 µg/mL) | IC50 (Prp8 intein [1]): 31.9 µM | IC50 (Prp8 intein [2]): 20.9 µM | CC50 at 48 h (in vitro): 68.1 µM

O=C(Nc1ccc(Cl)c(F)c1)c1nnsc1[S+]([O-])c1ccc(Cl)cc1 (stereo not drawn) [JMX1046-2, N-(4-Chloro-3-fluorophenyl)-5-((4-chlorophenyl)sulfinyl)-1,2,3-thiadiazole-4-carboxamide]
MIC (C. neoformans H99 strain): 1.56 µM (≈ 0.649 µg/mL) | IC50 (Prp8 intein [1]): 32.2 µM | IC50 (Prp8 intein [2]): 7.5 µM | CC50 at 48 h (in vitro): 149 µM

O=C(Nc1cc(F)c(F)c(F)c1)c1nnsc1S(=O)(=O)c1ccc(Cl)cc1 [JMX1044, 5-((4-Chlorophenyl)sulfonyl)-N-(3,4,5-trifluorophenyl)-1,2,3-thiadiazole-4-carboxamide]
MIC (C. neoformans H99 strain): > 50 µM | IC50 (Prp8 intein [1]): 31.8 µM | IC50 (Prp8 intein [2]): 16.3 µM | CC50 at 48 h (in vitro): 47.8 µM

O=C(Nc1ccccc1F)c1nnsc1S(=O)(=O)c1ccc(Cl)cc1 [JMX872, 5-((4-Chlorophenyl)sulfonyl)-N-(2-fluorophenyl)-1,2,3-thiadiazole-4-carboxamide]
MIC (C. neoformans H99 strain): > 50 µM | IC50 (Prp8 intein [1]): 28.3 µM | IC50 (Prp8 intein [2]): 31.8 µM | CC50 at 48 h (in vitro): 162 µM

O=C(Nc1ccc(F)cc1)c1nnsc1[S+]([O-])c1ccc(Cl)c(Cl)c1 (stereo not drawn) [JMX1064-2, 5-((3,4-Dichlorophenyl)sulfinyl)-N-(4-fluorophenyl)-1,2,3-thiadiazole-4-carboxamide]
MIC (C. neoformans H99 strain): > 50 µM | IC50 (Prp8 intein [1]): 19.8 µM | IC50 (Prp8 intein [2]): 35 µM | CC50 at 48 h (in vitro): 122 µM

Cc1ccc(NC(=O)c2nnsc2S(=O)(=O)c2ccc(Cl)cc2)cc1 [JMX1033, 5-((4-chlorophenyl)sulfonyl)-N-(p-tolyl)-1,2,3-thiadiazole-4-carboxamide]
MIC (C. neoformans H99 strain): > 50 µM | IC50 (Prp8 intein [1]): 35.2 µM | IC50 (Prp8 intein [2]): 45.9 µM | CC50 at 48 h (in vitro): 156 µM

O=C(Nc1ccc(F)c(Cl)c1)c1nnsc1S(=O)(=O)c1ccc(Cl)cc1 [JMX1037, N-(3-Chloro-4-fluorophenyl)-5-((4-chlorophenyl)sulfonyl)-1,2,3-thiadiazole-4-carboxamide]
MIC (C. neoformans H99 strain): 25 µM (≈ 10.8 µg/mL) | IC50 (Prp8 intein [1]): 31.4 µM | IC50 (Prp8 intein [2]): 14.1 µM | CC50 at 48 h (in vitro): 63.2 µM

O=C(Nc1ccc(Br)cc1)c1nnsc1S(=O)(=O)c1ccc(Cl)cc1 [JMX1034, N-(4-Bromophenyl)-5-((4-chlorophenyl)sulfonyl)-1,2,3-thiadiazole-4-carboxamide]
MIC (C. neoformans H99 strain): > 50 µM | IC50 (Prp8 intein [1]): 33.1 µM | IC50 (Prp8 intein [2]): 15.4 µM | CC50 at 48 h (in vitro): 84.8 µM

O=C(Nc1cc(F)c(F)c(F)c1)c1nnsc1[S+]([O-])c1ccc(Cl)cc1 (stereo not drawn) [JMX1044-2, 5-((4-Chlorophenyl)sulfinyl)-N-(3,4,5-trifluorophenyl)-1,2,3-thiadiazole-4-carboxamide]
MIC (C. neoformans H99 strain): > 50 µM | IC50 (Prp8 intein [1]): 26.9 µM | IC50 (Prp8 intein [2]): 4.4 µM | CC50 at 48 h (in vitro): 47.5 µM

O=C(Nc1ccc(Cl)c(F)c1)c1nnsc1S(=O)(=O)c1ccc(Cl)cc1 [JMX1046, N-(4-Chloro-3-fluorophenyl)-5-((4-chlorophenyl)sulfonyl)-1,2,3-thiadiazole-4-carboxamide]
MIC (C. neoformans H99 strain): > 50 µM | IC50 (Prp8 intein [1]): 34.1 µM | IC50 (Prp8 intein [2]): 20.1 µM | CC50 at 48 h (in vitro): 145 µM

O=C(Nc1ccc(F)cc1)c1nnsc1S(=O)(=O)c1ccc(F)cc1F [JMX1062, 5-((2,4-Difluorophenyl)sulfonyl)-N-(4-fluorophenyl)-1,2,3-thiadiazole-4-carboxamide]
MIC (C. neoformans H99 strain): > 50 µM | IC50 (Prp8 intein [1]): 38.2 µM | IC50 (Prp8 intein [2]): 21.7 µM | CC50 at 48 h (in vitro): 65.4 µM

O=C(Nc1c(F)cc(F)cc1F)c1nnsc1[S+]([O-])c1ccc(Cl)cc1 (stereo not drawn) [JMX1045-2, 5-((4-Chlorophenyl)sulfinyl)-N-(2,4,6-trifluorophenyl)-1,2,3-thiadiazole-4-carboxamide]
MIC (C. neoformans H99 strain): 3.12 µM (≈ 1.3 µg/mL) | IC50 (Prp8 intein [1]): 27.4 µM | IC50 (Prp8 intein [2]): 8.6 µM | CC50 at 48 h (in vitro): 61 µM

O=C(Nc1ccccc1)c1nnsc1S(=O)(=O)c1ccc(Cl)cc1 [JMX1035, 5-((4-Chlorophenyl)sulfonyl)-N-phenyl-1,2,3-thiadiazole-4-carboxamide]
MIC (C. neoformans H99 strain): 6.25 µM (≈ 2.37 µg/mL) | IC50 (Prp8 intein [1]): 38.4 µM | IC50 (Prp8 intein [2]): 33.9 µM | CC50 at 48 h (in vitro): 84.1 µM

O=C(Nc1cccc(F)c1)c1nnsc1S(=O)(=O)c1ccc(Cl)cc1 [JMX 871, 5-((4-Chlorophenyl)sulfonyl)-N-(3-fluorophenyl)-1,2,3-thiadiazole-4-carboxamide]
MIC (C. neoformans H99 strain): 3.12 µM (≈ 1.24 µg/mL) | IC50 (Prp8 intein [1]): 35.4 µM | IC50 (Prp8 intein [2]): 27.1 µM | CC50 at 48 h (in vitro): 140 µM

O=C(Nc1c(F)cc(F)cc1F)c1nnsc1S(=O)(=O)c1ccc(Cl)cc1 [JMX1045, 5-((4-Chlorophenyl)sulfonyl)-N-(2,4,6-trifluorophenyl)-1,2,3-thiadiazole-4-carboxamide]
MIC (C. neoformans H99 strain): > 50 µM | IC50 (Prp8 intein [1]): 34.3 µM | IC50 (Prp8 intein [2]): 15.9 µM | CC50 at 48 h (in vitro): 47.9 µM

O=C(Nc1cc(C(F)(F)F)cc(C(F)(F)F)c1)c1nnsc1S(=O)(=O)c1ccc(Cl)cc1 [JMX1041, N-(3,5-Bis(trifluoromethyl)phenyl)-5-((4-chlorophenyl)sulfonyl)-1,2,3-thiadiazole-4-carboxamide]
MIC (C. neoformans H99 strain): > 50 µM | IC50 (Prp8 intein [1]): 37.9 µM | IC50 (Prp8 intein [2]): 18.5 µM | CC50 at 48 h (in vitro): 66.7 µM

O=C(Nc1ccc([N+](=O)[O-])cc1F)c1nnsc1S(=O)(=O)c1ccc(Cl)cc1 [JMX1043, 5-((4-Chlorophenyl)sulfonyl)-N-(2-fluoro-4-nitrophenyl)-1,2,3-thiadiazole-4-carboxamide]
MIC (C. neoformans H99 strain): > 50 µM | IC50 (Prp8 intein [1]): 38.1 µM | IC50 (Prp8 intein [2]): 19.6 µM | CC50 at 48 h (in vitro): 66.9 µM
